We go through 1 compound from EP0472573B1, “HERBICIDE RESISTANT MAIZE” (ZENECA LIMITED, priority 1989, dated 1990).

The structures appear in SMILES notation.

This test has as its system M1 seed of maize inbred line UE95 (sensitive plants). Kind of test: Pre-emergence screening of M1 seed. In kind it is in vivo, Zea mays. The protocol:
M1 seed was sown, 100 seeds per tray, in WCB growing medium (low organic matter, 45% loam, 55% grit) and sprayed to 'run-off' using a track sprayer, with a solution of imazethapyr (PURSUIT) at a concentration calculated to be the equivalent of 250 g/ha of active ingredient . The seeds were covered with 0.5 inch of WCB and grown in the glasshouse at 25°C.
The chosen application rate was such that germination was close to 100%, but subsequently all susceptible plants were severely affected. However, after about two weeks, the initial effect of the herbicide became apparent: thin striped leaves and reduced height of only about 20% of the height of the control plants. […] Unsprayed UE95 plants were always grown in parallel with each screen as a control as it was already known that normal and M1 seedlings of UE95 are almost indistinguishable when germinated and grown to maturity without spraying.

`CCc1cnc(C2=NC(=O)C(C)(C(C)C)N2)c(C(=O)O)c1` (stereo not drawn) [Imazethapyr, 5-ethyl-2-(5-iso-propyl-5-methyl-4-oxo-2-imidazolin-2-yl) nicotinic acid] yielded a germination (250 g/ha of active ingredient, pre-emergence, glasshouse at 25°C) of about 100%. Besides, for the setting “250 g/ha, after three to four weeks”, the “effect on sensitive plants” value is listed as “almost all the sensitive plants were completely dead”. Besides, the reduced height result (250 g/ha, susceptible plants, after about two weeks) was “about 20 % of the height of the control plants”.
